Patent publication US20240053345A1, “POLYPEPTIDES BINDING SELECTIVELY HEPARIN OR HEPARAN SULFATE GLYCOSAMINOGLYCANS AND CELL-PENETRATING POLYPEPTIDES COMPRISING THE SAME” (SORBONNE UNIVERSITE, priority 2020, published 2024)
Where a SMILES comes first, the peptide text is derived from it. The star is where a group is joined. Biotin = O=C1N[C@H]2[C@H](CS[C@H]2CCCCC(=O)*)N1

Legend:
CaOV-3 cells = assay: Internalization of peptides in CaOV-3 cells; assay type: cell-based, human; details: for internalization efficacy in CaOV-3 compared to CHO-K1 / intracellular concentration of internalized peptide: 1 h at 37° C.; for intracellular concentration of internalized peptide: 1 pmol in 1 million cells taken as 1 μM (1 pL/cell)
Description: (§1) FIG. 2: Quantification of the internalization of peptides, studied in GAGs-deficient cells CHO-745 (white bar), wild type cells CHO-K1 (light grey bar) and two ovarian adenocarcinoma cells CaOV-3 (dark grey bar) and SKOV-3 (black bar) after 1 h incubation at 37° C. Experiments were done in duplicate or triplicate and repeated at least three times independently. Significance was tested using a student's t-test (NS:p>0.05, *0.05>p>0.01, **0.01>p>0.001, ***0.001>p).
(§2) FIG. 3: Quantification of internalization of chimeric peptides P1, P3 and P5 in cells CHO-745 (a,b) and in CaOV-3 cells (c,d). Peptides were incubated with cells for 1 h along with heparin (a) or chondroitin sulfate-E (b). P1 was also incubated with CaOV-3 for 1 h along with heparin (c) and P3 incubated with CaOV-3 in the presence of CS-E (d) at different concentrations. Experiments were done in duplicate or triplicate and repeated at least three times independently.
(§3) Peptides listed in Table 1 were incubated separately in the following four ovarian cell types which have different GAGs types and expression levels: wild type CHO-K1 (expressing heparan sulfate (HS), chondroitin sulfate A (CSA) and C (CSC)), CHO-pgs A475 (CHO-745) (genetically modified to express only 5-10% HS and CS), two human ovarian adenocarcinoma cells CaOV-3 (overexpressing HS and CSE) and SKOV-3 (overexpressing CSE). Peptides were incubated with one million cells at 37° C. for 1 h.
(§4) Wild type Chinese Hamster Ovary (CHO-K1) cells and GAGs-deficient mutant CHO-745 cells which lack the xylosyltransferase needed for glycosaminoglycan (GAG) synthesis were grown in Dulbecco's modified Eagle's medium F-12 (DMEMF-12) with L-glutamine and 15 mM HEPES. HEK cells and HeLa cells were grown in DMEM with 4.5 g/L D-glucose and pyruvate. Two types of human ovarian cancer cell lines CaOV-3 and SKOV-3 were cultured in DMEM with Glutamax and McCoy's 5A medium, respectively. All complete culture medium was supplemented with 10% fetal bovine serum, penicillin (100,000 IU/L), streptomycin (100 mg/L). Cells were grown in a humidified atmosphere at 37° C. and 5% CO2.
(§5) Tested Peptides were incubated separately in the following two ovarian cell types: CHO-745 and CaOV-3. The inventors incubated (7.5 μM) peptides with cells lines for 1 h along with exogenous heparin (HI) or chondroitin-4,6-sulfate (CSE) and quantified the internalized peptides by MS.

blood cells = assay: Hemolysis; assay type: cell-based; details: even at 50 μM for 2 h
Description: (§6) The inventors tested cytotoxicity and hemolysis activity of the peptides incubated with CHO-K1 cells at different concentrations.

SKOV-3 cells = assay: Internalization of peptides in SKOV-3 cells, also after sodium chlorate or GAG-specific enzyme pre-treatment; assay type: cell-based, human; details: for internalization after chondroitinase ABC (ChABC) treatment: enzyme pre-treatment 2 h; for internalization after heparinases cocktail treatment: heparinases I, II and III pre-treatment 2 h; for cellular uptake in SKOV-3 compared to CHO-K1: 1 h at 37° C.
Description: as §1
FIG. 4: Quantification of P3 after SKOV-3 pre-treatment with sodium chlorate for 24 h or GAG-specific enzymes for 2 h (a) and P1 after SKOV-3 pre-treatment with GAG-specific enzymes for 2 h (b). Experiments were done in duplicate or triplicate and repeated at least three times independently. Significance was tested using a student's t-test (NS:p>0.05, *0.05>p>0.01, **0.01>p>0.001, ***0.001>p).
as §3, §4
Tested Peptides were incubated separately in the following ovarian cell type: SKOV-3. A pre-treatment with sodium chlorate for 24 h or GAG-specific enzymes for 2 h.
The inventors used different concentrations of chlorate to treat SKOV-3 and analyzed the internalization of P3. […] The inventors also checked that there is no cytotoxicity generated by 100 mM concentration of NaClO3. […] Not merely impairment of sulfation leads to significant P3 internalization decline, enzymatic GAGs degradation might also impact on peptide internalization. They used two specific enzymes: one is the blend of heparinases I, II and III that are extracted from Flavobacterium heparinum and hydrolyze the glycosidic bonds of glucosamine and uronic acids; the other one is chondroitinase ABC (ChABC) lyase purified from Proteus Vulgaris that specifically catalyzes the degradation of chondroitin 4-sulfate, chondroitin 6-sulfate containing (1-4)-β-D-hexosaminyl and (1-3)-β-D-glucuronosyl or (1-3)-α-L-iduronosyl linkages to disaccharides containing 4-deoxy-β-D-gluc-4-enuronosyl groups.

[1] = Binding to chondroitin sulfate-E
[2] = test system: CHO-745, CHO-K1, CaOV-3 and SKOV-3 cells; assay: Quantification of internalization of peptides in four cell lines; assay type: cell-based; details: CHO-K1 or the two ovarian cancer cells (CaOV-3, SKOV-3) vs CHO-745; 1 h incubation at 37° C.
Description: as §1, §3, §4

CHO-745 cells = assay: Internalization of peptides in GAGs-deficient cells with exogenous GAGs, quantified by MS; assay type: cell-based, Chinese Hamster; details: for cellular quantity of internalized peptide: 7.5 μM peptide
Description: as §2
FIG. 5: The effect of heparin favoring P1 internalization can be reversed by addition of heparinase in […].
as §4, §5
P1 was incubated in the CHO-745 ovarian cell type with different concentrations of heparinase. Cells culture are similar to the example 1.

[3] = co-incubation with 7.2 μg/ml HI, 1 h
[4] = co-incubation with 7.2 μg/ml CSE, 1 h

Description for CHO-K1 cells: as §6

Molecule | internalization efficacy in CaOV-3 compared to CHO-K1 (CaOV-3 cells) | intracellular concentration of internalized peptide (CaOV-3 cells; CaOV-3) | effect of HI on relative internalization (CaOV-3 cells; CaOV-3, exogenous heparin, 1 h) | hemolysis of blood cells (blood cells) | internalization after chondroitinase ABC (ChABC) treatment (SKOV-3 cells; SKOV-3) | internalization after heparinases cocktail treatment (SKOV-3 cells; SKOV-3) | binding to CSE [1] | internalization compared with CHO-745 cells [2] | cellular quantity of internalized peptide (CHO-745 cells; [3]) | effect of CSE addition on internalization (CHO-745 cells; exogenous CSE, 1 h) | effect of degradation fragments of HI on internalization (CHO-745 cells; heparin degraded by heparinase) | effect of intact HI on internalization (CHO-745 cells; intact heparin) | cytotoxicity (CHO-K1 cells) | effect of CSE addition on internalization (CaOV-3 cells; CaOV-3, CSE 7.2 μg/ml, 1 h) | effect of CSE addition on internalization (CaOV-3 cells; CaOV-3, CSE concentrations below 3.6 μg/ml, 1 h) | cellular uptake in SKOV-3 compared to CHO-K1 (SKOV-3 cells) | internalization efficacy after sodium chlorate pre-treatment (SKOV-3 cells; SKOV-3, sodium chlorate 24 h, concentration-dependent) | cellular quantity of internalized peptide (CHO-745 cells; [4])
CC[C@H](C)[C@H](NC(=O)[C@H](CCCCN)NC(=O)[C@H](C)NC(=O)[C@H](CCCNC(=N)N)NC(=O)[C@H](CCCCN)NC(=O)[C@H](CC(N)=O)NC(=O)[C@H](CCC(N)=O)NC(=O)[C@H](Cc1ccccc1)NC(=O)[C@H](Cc1c[nH]c2ccccc12)NC(=O)[C@@H](NC(=O)[C@H](CCCCN)NC(=O)[C@@H](NC(=O)[C@H](CCC(N)=O)NC(=O)[C@H](CO)NC(=O)[C@H](CCCNC(=N)N)NC(=O)[C@@H]1CCCN1C(=O)[C@H](CCCNC(=N)N)NC(=O)[C@H](CCCCN)NC(=O)[C@H](CC(=O)O)NC(=O)[C@H](CCC(=O)O)NC(=O)[C@H](CCCCN)NC(=O)[C@H](CC(N)=O)NC(=O)[C@@H]1CCCN1C(=O)[C@H](CC(N)=O)NC(=O)[C@H](CCCCN)NC(=O)[C@H](CCCCN)NC(=O)[C@H](CCCCN)NC(=O)[C@@H]1CCCN1C(=O)[C@H](CCCCN)NC(=O)[C@H](CCCNC(=N)N)NC(=O)[C@H](CO)NC(=O)[C@H](CCCNC(=N)N)NC(=O)CNC(=O)CNC(=O)CNC(=O)CNC(=O)CNC(=O)CCCC[C@@H]1SC[C@@H]2NC(=O)N[C@@H]21)[C@@H](C)CC)[C@@H](C)CC)C(=O)N[C@@H](CCCCN)C(=O)N[C@@H](CCCCN)C(N)=O [P1, Biotin-G5-RSRKPKKKNPNKEDKRPR SQIKIWFQNKRAKIKK-NH2] (Biotin-GGGGGRSRKPKKKNPNKEDKRPRSQIKIWFQNKRAKIKK-NH2) | increased their internalization efficacy | 7 µM | favorable effect | no hemolysis | decrease | decrease | high binding affinity | entered significantly more | around 21 pmol | made no effect | lost the ability | promoted P1 internalization | not Cytotoxic | – | – | – | – | –
CC[C@H](C)[C@H](NC(=O)[C@H](CCCCN)NC(=O)[C@H](C)NC(=O)[C@H](CCCNC(=N)N)NC(=O)[C@H](CCCCN)NC(=O)[C@H](CC(N)=O)NC(=O)[C@H](CCC(N)=O)NC(=O)[C@H](Cc1ccccc1)NC(=O)[C@H](Cc1c[nH]c2ccccc12)NC(=O)[C@@H](NC(=O)[C@H](CCCCN)NC(=O)[C@@H](NC(=O)[C@H](CCC(N)=O)NC(=O)[C@H](CO)NC(=O)[C@H](CC(C)C)NC(=O)[C@H](CCC(N)=O)NC(=O)[C@H](C)NC(=O)[C@H](CCCNC(=N)N)NC(=O)[C@@H](NC(=O)[C@H](Cc1ccccc1)NC(=O)[C@@H](NC(=O)[C@@H](NC(=O)[C@H](CCCNC(=N)N)NC(=O)[C@H](CCC(=O)O)NC(=O)[C@H](CCCNC(=N)N)NC(=O)[C@H](CCCNC(=N)N)NC(=O)[C@H](CCC(N)=O)NC(=O)[C@H](CCCCN)NC(=O)[C@H](CCCNC(=N)N)NC(=O)CNC(=O)CNC(=O)CNC(=O)CNC(=O)CNC(=O)CCCC[C@@H]1SC[C@@H]2NC(=O)N[C@@H]21)[C@@H](C)O)[C@@H](C)O)[C@@H](C)O)[C@@H](C)CC)[C@@H](C)CC)C(=O)N[C@@H](CCCCN)C(=O)N[C@@H](CCCCN)C(N)=O [P3, Biotin-G5-RKQRRERTTFTRAQL SQIKIWFQNKRAKIKK-NH2] (Biotin-GGGGGRKQRRERTTFTRAQLSQIKIWFQNKRAKIKK-NH2) | increased their internalization efficacy | 24 µM | – | no hemolysis | significantly curtailed internalization | almost no difference | – | entered significantly more | ~28 pmol | – | – | – | not Cytotoxic | evokes P3 internalization | inhibited P3 internalization | apparently increased their cellular uptake | dramatically reduced | around 6.5 pmol
Biotin-GGGG-KEDKRPRTAFTAEQL SQIKIWFQNKRAKIKK-NH2 [P5] | increased their internalization efficacy | 7 µM | – | – | – | – | – | entered significantly more | ~22 pmol | – | – | – | – | – | – | apparently increased their cellular uptake | – | 2.2 pmol
SQIKIWFQNKRAKIKK [En2H3, Ac-SQIKIWFQNKRAKIKK-NH2] | increased their internalization efficacy | 7 µM | – | – | – | – | – | entered significantly more | – | – | – | – | – | – | – | – | – | –
